Assay type in all cases: cell-based
The test system of assay [1] is MDA-MB-453 cells. The assay is described as follows: Combination with PI3K inhibitor Idelalisib, proliferation of MDA-MB-453 cells, Combination Index. The note with it: molar ratio to Idelalisib 1:270-1:3.333, 7-10 days. The procedure: Triple negative breast cancer MDA-MB-453 cells in logarithmic growth stage were inoculated into a 96-well plate at a concentration of 4×10^3 cells/well, and then incubated in an incubator at 37° C., 5% CO2, and saturated humidity for 24 h. To the negative control wells, were added RPMI 1640 cell culture medium containing 10% fetal bovine serum in the same volume as the drug. After cultured for 24 h, to the 96-well plate, were sequentially added AR PROTACs compounds 279, 281, 282, ARV-110, ARV-766 and PI3K inhibitor Idelalisib, respectively.
(§1) After adding the drugs and co-incubating for 7-10 days, 10 μL of CCK-8 was added to each well, and then the plate was further cultured for 2 h. The absorbance value (OD) of each well was measured using a microplate reader at a wavelength of 450 nm. The survival rate was calculated using Prism software, the relative survival rate=(OD value of drug well/OD value of control well)×100%. Alternatively, 100 μL of medium was removed from each well, and then 50 μL of CTG was added. The plate was shaken in the dark for 2 min, allowed to stand for 10 min, and then measured using a microplate reader in Luminescence mode. Prism software was used to calculate the survival rate, the relative survival rate=(the RLU value of drug well/the RLU value of control well)×100%.

Another assay deals with MDA-MB-468. The assay is described as follows: Antiproliferation, CellTiter-Glo, 5 days, MDA-MB-468. The note with it: Homo sapiens, 120 h, MDA-MB-468, AR− TNBC. The procedure:
(§2) For MDA-MB-453, MFM-223, SUM159PT, MDA-MB-468, and HCC1937, 4,000, 3,000, 1,000, 3,000, and 3,000 cells were plated per well in 96-well microplates (Corning Inc), respectively. Cells were treated with serial dilutions of tested compounds with the maximum working concentration of 10 μM. Cell survival was measured 5 days later using a CellTiter-Glo luminescent cell viability assay kit (Promega Corporation). Luminescence was recorded by FLUOstar Omega microplate reader (BMG Labtech). Half maximal inhibitory concentration (IC50) was determined with GraphPad Prism using baseline correction (by normalizing to dimethyl sulfoxide (DMSO) control)
(Cellular ATP, detected with luciferase, serves as a proxy for viable cell number.)

Assay [2] concerns MDA-MB-453 cells. The experiment in a line: Combination with chemotherapeutic drug Paclitaxel, proliferation of MDA-MB-453 cells, Combination Index. The following applies: molar ratio to Paclitaxel 20:1-5000:1, 7 days. The method, then:
Triple negative breast cancer MDA-MB-453 cells in logarithmic growth stage were inoculated into a 96-well plate at a concentration of 4×10^3 cells/well, and then incubated in an incubator at 37° C., 5% CO2, and saturated humidity for 24 h. To the negative control wells, were added RPMI 1640 cell culture medium containing 10% fetal bovine serum in the same volume as the drug. After cultured for 24 h, to the 96-well plate, were sequentially added AR PROTACs compounds 279, 281, 282, ARV-110 and chemotherapeutic drug Paclitaxel, respectively.
as §1, with “7” for “7-10”

The subject of the next assay is MDA-MB-453. The assay is described as follows: Antiproliferation, CellTiter-Glo, 5 days, MDA-MB-453. The following applies: Homo sapiens, 120 h, MDA-MB-453, AR+ TNBC. The procedure:
as §2

The test system of assay [3] is AR+ TNBC cells (MDA-MB-453, SUM159PT and MFM-223) and AR- TNBC (MDA-MB-468 and HCC1937). The experiment in a line: Antiproliferation in AR positive and negative TNBC cells (summary over the cell line panel). The note with it: AR+ TNBC cells: MDA-MB-453, SUM159PT and MFM-223. The method, then: as §2
In a further assay the target is T1, Androgen Receptor (Homo sapiens, UniProt P10275).
T1 construct: endogenous in cells
T1 sequence (P10275 1-920): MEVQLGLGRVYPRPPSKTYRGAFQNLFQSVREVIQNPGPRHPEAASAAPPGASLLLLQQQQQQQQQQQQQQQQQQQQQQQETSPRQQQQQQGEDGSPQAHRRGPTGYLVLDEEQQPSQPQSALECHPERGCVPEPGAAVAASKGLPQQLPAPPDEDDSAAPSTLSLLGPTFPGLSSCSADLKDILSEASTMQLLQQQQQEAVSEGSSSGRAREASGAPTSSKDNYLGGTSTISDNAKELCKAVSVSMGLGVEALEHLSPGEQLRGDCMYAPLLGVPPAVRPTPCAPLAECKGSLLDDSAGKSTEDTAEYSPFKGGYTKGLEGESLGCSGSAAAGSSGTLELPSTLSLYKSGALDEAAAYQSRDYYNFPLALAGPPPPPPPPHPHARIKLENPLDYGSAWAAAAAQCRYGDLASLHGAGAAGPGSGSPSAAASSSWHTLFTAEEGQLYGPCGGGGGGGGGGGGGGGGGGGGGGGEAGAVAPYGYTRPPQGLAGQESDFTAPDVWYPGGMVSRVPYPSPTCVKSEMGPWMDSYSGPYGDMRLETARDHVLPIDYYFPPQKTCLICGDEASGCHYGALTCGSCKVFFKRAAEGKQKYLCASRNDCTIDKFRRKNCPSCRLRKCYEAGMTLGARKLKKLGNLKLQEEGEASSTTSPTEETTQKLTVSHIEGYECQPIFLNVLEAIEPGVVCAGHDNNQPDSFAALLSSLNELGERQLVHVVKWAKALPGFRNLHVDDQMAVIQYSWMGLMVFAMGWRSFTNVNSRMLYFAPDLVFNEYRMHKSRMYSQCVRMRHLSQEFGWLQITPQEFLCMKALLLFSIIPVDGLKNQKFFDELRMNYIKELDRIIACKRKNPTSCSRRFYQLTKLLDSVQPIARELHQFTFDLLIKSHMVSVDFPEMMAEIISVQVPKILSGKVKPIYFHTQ
The experiment in a line: AR degradation in AR positive TNBC cells, western blotting. The following applies: MDA-MB-453, SUM159PT and MFM-223 cells, 24 hours, up to 1 μM, western blot. The method, then: Cells were plated in 12-well microplates and incubated at 37° C. overnight for attachment. Cells were then treated for 24 hours with serial dilutions of tested compounds with the maximum working concentration of 1 μM. Cell lysate were subjected to the western blotting assay against AR antibody.
Primary antibodies: Androgen Receptor (D6F11) XP® Rabbit mAb; Anti-GAPDH Rabbit mAb; Secondary antibody: Goat Anti-Rabbit IgG H&L (HRP)
(In western blotting, separated proteins are transferred to a membrane and probed.)

Broadly, the IC50 is the concentration at which inhibition is half-maximal. Lower therefore signals greater potency in that assay. For `N#Cc1ccc(O[C@H]2CC[C@H](NC(=O)c3ccc(N4CCC(CN5CCN(c6cc7c(cc6F)C(=O)N(C6CCC(=O)NC6=O)C7=O)CC5)CC4)nn3)CC2)cc1Cl` (stereo partly shown) [ARV-110, reference compound], the “effect of the combination with Idelalisib on inhibiting proliferation (CI<1 = synergistic)” value with MDA-MB-453 cells [1] was “synergistic effect”. Further, the results for the half-inhibitory concentration (IC50) in the assay with MDA-MB-468 and with MDA-MB-453 were above 10 µM and 1.4 µM, respectively. The “effect of the combination with Paclitaxel on inhibiting proliferation (CI<1 = synergistic)” value in the assay with MDA-MB-453 cells [2] is on record as “synergistic effect”.

On to `N#Cc1ccc(O[C@H]2CC[C@H](NC(=O)c3cnc(N4CCC(CN5CCC6(CC5)CN(c5ccc7c(c5)C(=O)N(C5CCC(=O)NC5=O)C7=O)C6)CC4)nn3)CC2)cc1Cl` (stereo partly shown) [Compound 279], for which, in assay [3], the “anti-proliferation activity in AR+ TNBC cells” value was “superior anti-proliferation activity”. Further, in the assay with MDA-MB-453 cells [1], the “effect of the combination with Idelalisib on inhibiting proliferation (CI<1 = synergistic)” value was “synergistic effect”. In addition, the IC50 in the assay on MDA-MB-468 is above 10 µM; in the assay with MDA-MB-453, 0.14 µM. The “effect of the combination with Paclitaxel on inhibiting proliferation (CI<1 = synergistic)” value in the assay on MDA-MB-453 cells [2] is on record as “synergistic effect”. In addition, the “AR degradation (words, FIG. 1)” value on Androgen Receptor is on record as “superior degradation activity”.

The record behind these values is patent US20250082763A1, “COMBINATION DRUG FOR TREATING TRIPLE-NEGATIVE BREAST CANCER” (HINOVA PHARMACEUTICALS INC., priority 2022, published 2025).
